In patent US20220031625A1, “OPHTHALMIC COMPOSITIONS FOR DELIVERING MEIBUM-LIKE MATERIALS” (Altaire Pharmaceuticals, Inc., priority 2020, published 2022):

System: normal human keratinocytes/stratified squamous epithelium (EPIOCULAR model)
Experiment: Ocular irritation test - MTT assay on EPIOCULAR model
Format: cell-based
Protocol: Another Ocular Irritation Study was done by exposing a microemulsion containing polyoxyl 35 castor oil in accordance with an embodiment of the present disclosure onto normal human keratinocytes/stratified squamous epithelium which is similar to that found in the cornea epithelium of the human eye (EPIOCULAR model), and then checking tissue viability with MTT assay for cytoxicity after incubation in comparison with a water control (Cyprotex). The study design and results are summarized below in Table 7.

For COC(C)=O [Methyl Acetate], the “Irritation Response (Irritant if ≤60%)” value (EPIOCULAR model) was “Positive” and the “Mean Tissue Viability” value (in comparison with a water control) was 31.1%.
